According to ChEMBL document CHEMBL5727030, “Factor IXa inhibitors” (2018):

Target: Coagulation factor IX (Homo sapiens, UniProt P00740)
Test: Test substances were dissolved in buffer A (50 mM α,α,α-tris(hydroxymethyl) methylamine (Tris), 100 mM NaCl, 5 mM CaCl2, 15% (v/v) ethylene glycol, pH 8.0) were mixed with factor IXa (0.1 μg/ml final concentration). The enzyme reaction was started by addition of SPECTROFLUOR FIXa (100 μM final concentration).

Chain of Coagulation factor IX (P00740 47-191 limits assumed): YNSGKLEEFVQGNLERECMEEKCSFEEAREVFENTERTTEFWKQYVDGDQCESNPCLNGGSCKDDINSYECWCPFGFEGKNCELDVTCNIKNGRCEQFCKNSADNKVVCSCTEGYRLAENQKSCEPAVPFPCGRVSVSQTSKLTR
Chain of Coagulation factor IX (P00740 227-461 limits assumed): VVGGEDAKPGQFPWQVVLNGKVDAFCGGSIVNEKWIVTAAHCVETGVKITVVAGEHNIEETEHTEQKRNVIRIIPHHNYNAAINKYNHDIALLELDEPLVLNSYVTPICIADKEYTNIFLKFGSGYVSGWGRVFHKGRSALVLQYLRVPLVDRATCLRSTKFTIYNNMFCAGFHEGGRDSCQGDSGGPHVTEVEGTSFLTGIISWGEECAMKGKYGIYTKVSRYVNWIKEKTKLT

IC50: < 0.1 µM
Structure (SMILES): Nc1noc2c(N3CCC(NC(=O)c4c(Cl)cc(-n5cnnc5)cc4Cl)(c4ccccc4)C3)cccc12 (stereo unspecified)
